According to PMC7797697 (Theranostics, 2021):

Experiments:
[1] = test system: MDA-MB-231 cells; test: RT-qPCR of marker genes; format: cell-based, human
Method: Reverse transcription was performed using the RevertAid First Strand cDNA Synthesis Kit ([…]) according to the manufacturer's instructions. The primers for the detection of target mRNA are shown in Table S2. β-actin was used as an internal reference. The relative expression of target genes was calculated by the 2^-ΔΔCt method.

[2] = Pathological examination (H&E) of main organs; format: in vivo, nude mice; details: i.v., 50 mg/kg, every other day for four weeks
Method: (§1) MDA-MB-231 (5 × 10^6 cells) were inoculated into the left abdominal mammary fat pad of 6-week-old female nude mice, and tumor growth was monitored. […] After four weeks of treatment, all mice were sacrificed according to ethical guidelines. Tumors were excised and analyzed. Tumor volume was measured using a Vernier caliper and calculated according to the following formula: π/6 × length × width^2. All animal handling and procedures were approved by the Capital Medical University Institutional Animal Care. Tumor and adjacent tissues were rapidly fixed in 4% paraformaldehyde (Sigma-Aldrich) for at least 24 h and embedded in paraffin for microscopic examination. From the prepared paraffin blocks, 5-μm thick sections were cut and stained with hematoxylin and eosin (H&E) for light microscopic observation. Sections were processed as per standard protocols using 3,3'-diaminobenzidine (DAB) staining. All human and mouse tissues were collected according to protocols approved by the Ethics Committee of Capital Medical University, and informed consent was obtained from all patients.

[3] = test system: MDA-MB-231 cells; test: TUNEL assay; format: cell-based, human; details: compared to DMSO treatment
Description: Apoptosis was detected using a Cell Death Detection Fluorescein Kit for TUNEL assay (RiboBio, Guangzhou, China) according to the manufacturer's instructions. […] Signals were detected by fluorescence microscopy. Non-apoptotic cells were visualized under a DAPI (4′,6-diamidino-2-phenylindole) filter.

[4] = test system: MDA-MB-231 and primary breast tumor cells; test: EdU incorporation assay; format: cell-based, human; details: compared to DMSO treatment
Description: After that, DNA proliferation was detected using an EdU assay kit according to the manufacturer's instructions (RiboBio, Guangzhou, China).

[5] = test system: non-breast cancer cell lines; test: CCK8 assay IC50, panel summary; format: cell-based; details: panel of non-breast cancer cell lines, 72 h
Method: (§2) Cell viability was then detected using a CCK8 assay (MedChemExpress, USA) according to the manufacturer's instructions.
(§3) Statistical analyses of all data were performed using GraphPad Prism (version 8.0, Graph Pad Software Inc., San Diego, CA, USA). All the data were analyzed by Student's t-test or one-way ANOVA. The Z-Score was chosen to evaluate the results and experimental deviation. Quantitative data are presented as the mean ± SD. The asterisk (*) denotes statistically significant difference (P < 0.05). IC50 was calculated using a four-parameter fit with variable slope in GraphPad Prism.

[6] = test system: MDA-MB-231 xenografts; test: MDA-MB-231 xenograft anti-tumor activity; format: in vivo, nude mice; details: i.v., 50 mg/kg
Method: as §1

[7] = test system: MDA-MB-231, T-47D, and primary breast tumor cells; test: Wound-healing assay; format: cell-based, human; details: compared with DMSO treatment, P < 0.05
Method: Tumor cell migration was determined by the wound healing assay. […] After treatment, a straight scratch was made onto the cell monolayer using a pipette tip. The cells were washed with PBS three times to remove the floating cells, and the cells were cultured in serum-free medium for 24 h. Cell wound edges were captured using a light microscope.

[8] = test system: MEF; test: CCK8 assay IC50; format: cell-based, mouse; details: Mus musculus, normal cells, 72 h
Description: HeLa, MCF-7 and MDA-MB-231 cell lines were purchased from the American Type Culture Collection. MCF-10A, T-47D, PANC-1, A549, HCT-15, Caco-2, SMMC-7721, SH-SY5Y, HUVEC and PC-3 cell lines were obtained from the Chinese Academy of Medical Sciences. MEF was isolated from pregnant mice at 14‒16 days of pregnancy. Primary breast cancer cells were isolated from breast cancer patients. All media including Dulbecco Modified Eagle Medium (DMEM), RPMI 1640 Medium and DMEM/Nutrient Mixture F-12 were supplemented with 10% fetal bovine serum (FBS), 100 units/mL penicillin, and […] streptomycin (Gibco, Waltham, MA, USA). Cells were cultured in a humidified incubator equilibrated with 5% CO2 at 37 °C. Cells were treated for 24-72 h in adherent conditions with compounds from an epigenetic small molecule inhibitor library (L1200, Topscience, Shanghai, China).
as §2
as §3, with “The asterisk (*) denotes statistically significant difference (P < 0.05).” left out

[9] = test system: HeLa; test: CCK8 assay IC50; format: cell-based; details: Homo sapiens, cervical cancer, 72 h
Method: as §2, §3

[10] = test system: PANC-1; test: CCK8 assay IC50; format: cell-based; details: Homo sapiens, PANC-1, pancreatic cancer, 72 h
Method: as §2, §3

[11] = test system: HCT-15; test: CCK8 assay IC50; format: cell-based; details: Homo sapiens, HCT-15, colon cancer, 72 h
Method: as §2, §3

[12] = test system: MCF-7; test: CCK8 assay IC50; format: cell-based; details: Homo sapiens, MCF7; MCF-7, 72 h, CCK8, value of the text
Method: as §2, §3

[13] = test system: PC-3; test: CCK8 assay IC50; format: cell-based; details: Homo sapiens, PC-3, prostatic cancer, 72 h
Method: as §2, §3

[14] = test system: Caco-2; test: CCK8 assay IC50; format: cell-based; details: Homo sapiens, Caco-2, colon cancer, 72 h
Method: as §2, §3

[15] = test system: A549; test: CCK8 assay IC50; format: cell-based; details: Homo sapiens, A549, lung cancer, 72 h
Method: as §2, §3

[16] = test system: T-47D; test: CCK8 assay IC50; format: cell-based; details: Homo sapiens, T47D, breast cancer, 72 h
Method: as §2, §3

[17] = test system: SMMC-7721; test: CCK8 assay IC50; format: cell-based; details: Homo sapiens, SMMC-7721, liver cancer, 72 h
Method: as §2, §3

[18] = test system: SH-SY5Y; test: CCK8 assay IC50; format: cell-based; details: Homo sapiens, neuroblastoma, 72 h
Method: as §2, §3

With CN(C)Cc1c(C(=O)NCCOc2ccc(C(=O)NO)cc2)oc2ccccc12 [PCI-24781] the “expression of Ca^2+-related pathway markers (SYT1, SYTL2, SYT7, SYT12, TC2N, MMP1, MMP3, PLCβ3)” value [1] was “downregulated”, the “expression of MMP2, MMP15, and MMP16” value [1] was “significantly inhibited” and the “expression of epithelial markers (α-catenin, γ-catenin)” value [1] was “significant upregulation”. For the same compound, the “mRNA levels of mesenchymal/NE markers (N-cadherin, vimentin, fibronectin, Syn, ASH1, NCAM1)” value [1] was “either inhibited or unaffected”, the “histological changes in the main organs (heart, liver, lung, spleen, and kidney)” value [2] was “did not exhibit serious histological changes” and the “apoptosis (TUNEL)” value [3] was “higher rate of apoptosis”. For the same compound, the “cell proliferation (EdU incorporation)” value [4] was “decreased proliferation”, the IC50 [5] was over 1000 nM and the “Ki-67 staining of tumor tissues” value [6] was “inhibited tumor proliferation”. For the same compound, the tumor growth inhibition ([6]; every other day for four weeks, compared to control group, P < 0.0001) was 74.6%, the “RGS2 IHC staining in tumor tissues” value ([6]; versus control group) was “more abundant and more intensely stained” and the “wound closure (cell migration)” value [7] was “significant delay”. For the same compound, the IC50 [8] was 15000 nM, the IC50 [9] was 1820 nM and the IC50 [10] was 3000 nM. The IC50 [11] was 33000 nM, the IC50 [12] was 896 nM and the IC50 [13] was 1220 nM. For the same compound, the IC50 [14] was 2000 nM, the IC50 [15] was 1160 nM and the IC50 [16] was 2630 nM. The IC50 [17] was 12000 nM and the IC50 [18] was 6000 nM.
